Read-outs that look alike come from different tables or passages of the source.
Columns and labels:
HIV-1 LTR [1] = assay: Tat-activated integrated LTR-CAT reporter assay in HeLa-CD4-LTR cells; type: cell-based
Protocol: (§1) Cell lines transfections and assays. Transfections of HeLa cells were performed as previously described (49). HeLa-CD4-LTR (9) cells were grown in DMEM supplemented with 10% FCS and transfected with 20 μg plasmid DNA (prepared using EndoFree plasmid kit, Qiagen, Valencia, Calif.) by calcium phosphate coprecipitation as per manufacturer's instructions (ProFection system, Promega, Madison, Wis.). After 30 minutes at room temperature, the solution was added to the cells (2.5-4×10^5 cells/plate). Twelve hours after transfection, the cells were washed with PBS and fed fresh medium. Forty-eight hours later the cells were harvested, cellular extracts prepared, and CAT assays performed as previously described (49). To control for the effect of transcription factor overexpression on general cellular promoters a reporter construct driven by the beta-actin promoter, pH[…]-actin-luciferase (66), was used in cotransfection and CAT expression normalized for luciferase activity. Other plasmids used have been previously described (2, 49). […] Up to 30 μl of cellular extract (normalized for protein concentration) in a final volume of 130 μl was used for luciferase reactions.
The LTR reporter carried by HeLa-CD4-LTR cell line exists within the native chromatin structure of the genome. […]

HIV-1 LTR [2] = assay: Tat-activated, LTR-driven CAT expression, plasmid-based reporter, transient cotransfection; type: cell-based; details: data not shown
Protocol: as §1

[3] = test system: RCS oligonucleotide (−10 to +27 of HIV-1 LTR); type: binding
HIV-1 = details: HeLa cells cotransfected with pNL4-3 (CXCR4) or pYU-2 (CCR5)
Protocol: For virus production experiments 2×10^4 HeLa cells were transfected with 10 μl of Superfect (Qiagen, Valencia, Calif.) and 2.5-3.0 μg of DNA in a volume of 0.6 ml for 3 hours, washed with PBS, and then grown in 2 ml. Aliquots of culture medium were sampled for detection of HIV-1 p24^gag protein by antigen capture enzyme-linked immunosorbent assay according to the manufacturer's instructions (Coulter Corporation, Hialeah, Fla.).
As these cells support HIV replication but cannot be infected, a measurement of the effect of YY1 on a single round of viral replication can be made.
The influence of YY1 on viral production was assayed by testing of culture supernatant for the presence of the viral protein p24^gag.

Molecule | Effect on YY1-mediated repression of integrated LTR-CAT expression (HIV-1 LTR [1]; with YY1 transfection, trichostatin-A added to culture medium (data not shown)) | Tat-activated CAT expression from integrated LTR reporter (HIV-1 LTR [1]; 200 ng pAR-Tat, 2.5 μg CMV expression plasmid, normalized to β-actin-luciferase) | Tat-activated, LTR-driven CAT expression (plasmid-based reporter) (HIV-1 LTR [2]) | Complex formation with the RCS in EMSA ([3]; 20 ng to 100 ng added in the presence of 10 ng of LSF) | Complex formation with the RCS in EMSA ([3]; up to 100 ng protein alone) | HIV-1 production (p24gag in culture supernatant) (HIV-1)
CC(/C=C/C(=O)NO)=C\[C@@H](C)C(=O)c1ccc(N(C)C)cc1 [trichostatin-A, reference compound] | blocked |  |  |  |  | 
YY1: cellular transcription factor that binds the RCS and inhibits LTR-driven HIV transcription (SEQ ID NO: 3) |  | inhibited Tat-activated CAT activity | inhibited Tat-activated, LTR-driven CAT expression | increasing levels of complex formation | did not form a detectable complex | dose-dependent inhibition
